Results taken from article PMC7221086, “Trefoil factors share a lectin activity that defines their role in mucus” (Nature Communications, 2020).

How the values were obtained:
[1] = target: T1, mTFF1 (human TFF1, monomeric) (Homo sapiens, UniProt P04155); experiment: Isothermal titration calorimetry of glycans against mTFF1; assay type: binding; settings: 25 °C
T1 construct: PelB signal peptide (N, cleaved yes); His6 (C, cleaved yes); made in house; host or cells: E. coli T7 Express, periplasmic extraction
T1 sequence (P04155 with tags, fused parts or gaps): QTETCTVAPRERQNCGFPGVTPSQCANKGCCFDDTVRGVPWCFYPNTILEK
Description: (§1) All TFF and ligand stock solutions were prepared in the same buffer (50 mM HEPES, 50 mM NaCl, pH 7.4) and filtered (0.22 µm) just prior to titration. All control and non-binding ligand experiments were performed as 12 × 3.18 µl injections. For experiments with GlcNAc-α-1,4-Gal (Carbosynth), 25 × 1.58 µl injections were used. All runs were performed at 25 °C in a MicroCal iTC200 (Malvern).
(§2) Supplementary Table 2: Parameters used for ITC and thermodynamic terms determined for
(§3) GlcNAc-α-1,4-Gal binding to the TFFs. Data are presented as mean values ±SD for three
(§4) Protein GlcNAc-α- T n Kd ΔH ΔS -TΔS ΔG
(§5) (30 µM) 1,4-Gal (µM) (℃) (µM) (kcal · mol-1) (cal · mol-1 · K-1) (kcal · mol-1) (kcal · mol-1)

TFF2 (human TFF2) = target: T2, TFF2 (human TFF2) (Homo sapiens, UniProt Q03403, N38Q); experiment: Isothermal titration calorimetry of glycans against TFF2; assay type: binding
T2 construct: with an N-terminal gp67 signal peptide and a C-terminal His10-tag; gp67 signal peptide (N, cleaved yes); made in house; host or cells: Sf21 insect cells (baculovirus), secreted
T2 sequence (Q03403 24-129 N38Q): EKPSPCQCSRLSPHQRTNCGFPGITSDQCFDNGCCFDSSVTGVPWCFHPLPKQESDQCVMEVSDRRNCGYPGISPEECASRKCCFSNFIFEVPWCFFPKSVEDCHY
Description: as §1, §2, §3, §4, §5

[2] = target: T3, mTFF3 (human TFF3, monomeric) (Homo sapiens, UniProt Q07654, C78S); experiment: Isothermal titration calorimetry of glycans against mTFF3; assay type: binding
T3 construct: with an N-terminal PelB signal peptide, no interchain Cys, and a C-terminal His6-tag; PelB signal peptide (N, cleaved yes); His6 (C, cleaved yes); made in house; host or cells: E. coli T7 Express, periplasmic extraction
T3 sequence (Q07654 22-80 C78S): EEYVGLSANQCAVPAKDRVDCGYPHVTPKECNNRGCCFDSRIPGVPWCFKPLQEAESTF
Description: as §1, §2, §3, §4, §5

mTFF1 = target: T4, mTFF1 (Homo sapiens, UniProt P04155); experiment: Tryptophan fluorescence quenching assay, mTFF1; assay type: binding
T4 construct: PelB signal peptide (N, cleaved yes); His6 (C, cleaved yes); made in house; host or cells: E. coli T7 Express, periplasmic extraction
T4 sequence (P04155 29-72 limits assumed): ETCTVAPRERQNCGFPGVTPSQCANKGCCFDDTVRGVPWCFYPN
Description: (§6) Tryptophan fluorescence quenching assays were performed at 25 °C on an EnVision 2105 Multimode Plate Reader (PerkinElmer) with excitation at 280 nm and emission measured at 340 nm. The assay was performed in a 384-well plate (Corning, low volume black round bottom polystyrene non-binding surface) using 15 µl per well. Each sample contained mTFF1 or mTFF3 (5 µM) and GlcNAc-α-1,4-Gal (1 µM–4.1 mM) in 50 mM BTP/citric acid, 25 mM NaCl, at either pH 2.6, 5.0, or 7.4. For each ligand dilution series, Kd was calculated by fitting the data to a one-site binding curve using Prism 8 (GraphPad) and the mean calculated from three independent experiments.

mTFF3 = target: T5, mTFF3 (Homo sapiens, UniProt Q07654, C78S); experiment: Tryptophan fluorescence quenching assay, mTFF3; assay type: binding
T5 construct: with an N-terminal PelB signal peptide, no interchain Cys, and a C-terminal His6-tag; PelB signal peptide (N, cleaved yes); His6 (C, cleaved yes); made in house; host or cells: E. coli T7 Express, periplasmic extraction
T5 sequence (Q07654 22-80 C78S): T3 sequence (Q07654 22-80 C78S)
Description: as §6

all TFFs = experiment: Dissociation constant of TFF-disaccharide complexes, summary of orthogonal techniques; assay type: binding, human; settings: physiological pH, approximate
Description: as §1, §6

dTFF1bio-N14A = target: T6, dTFF1bio-N14A (Homo sapiens, UniProt P04155, N40A); experiment: ITC of GlcNAc-α-1,4-Gal against dTFF1bio-N14A; assay type: binding; settings: mutant dTFF1bio-N14A
T6 construct: […]; made in house; host or cells: E. coli SHuffle T7; dimerised with K3Fe(CN)6
T6 sequence (P04155 25-84 N40A): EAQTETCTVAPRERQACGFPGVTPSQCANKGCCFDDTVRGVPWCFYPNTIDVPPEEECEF
Description: as §1
(§7) Supplementary Figure 1: ITC controls and negative results. Top row: Ligand into buffer and
(§8) buffer into protein controls for Figure 1D. Bottom row: ITC data for TFF mutants.
(§9) (1 picture or pasted object on this page, not shown here)

the other TFF mutants = experiment: ITC of GlcNAc-α-1,4-Gal against the other TFF mutants; assay type: binding, human
Description: as §1, §7, §8, §9

[3] = target: bacterial carbohydrate-binding module family 32 protein (CBM32); settings: CBM32 binding GlcNAc-α-1,4-Gal; cited from earlier work

Q: With `CC(=O)N[C@H]1[C@@H](O[C@@H]2[C@H](O)[C@@H](O)C(O)O[C@@H]2CO)O[C@H](CO)[C@@H](O)[C@@H]1O` (stereo partly drawn) [GlcNAc-α-1,4-Gal] as the compound, how does the n ([1]; ITC stoichiometry) read?
A: 1.0 ± 0.2

Q: What about the “-TΔS” value ([1]; ITC) of the same compound?
A: 4 ± 2 kcal/mol

Q: What about the ΔG ([1]; ITC) of the same compound?
A: -5.97 ± 0.03 kcal/mol

Q: What about the ΔH ([1]; ITC) of the same compound?
A: -10 ± 2 kcal/mol

Q: What about the ΔS ([1]; ITC) of the same compound?
A: -14 ± 5 cal · mol-1 · K-1

Q: What about the Kd ([1]; ITC, 50 mM HEPES, 50 mM NaCl, pH 7.4, protein 30 µM) of the same compound?
A: 49 ± 4 µM

Q: And the Kd (TFF2 (human TFF2))?
A: 44 ± 8 µM

Q: What about the n (TFF2 (human TFF2); ITC stoichiometry, 25 °C) of the same compound?
A: 0.7 ± 0.3

Q: And the “-TΔS” value (TFF2 (human TFF2); ITC, 25 °C)?
A: 20 ± 10 kcal/mol

Q: And the ΔG (TFF2 (human TFF2); ITC, 25 °C)?
A: -6.2 ± 0.2 kcal/mol

Q: And the ΔH (TFF2 (human TFF2); ITC, 25 °C)?
A: -20 ± 10 kcal/mol

Q: And the ΔS (TFF2 (human TFF2); ITC, 25 °C)?
A: -60 ± 40 cal · mol-1 · K-1

Q: And the Kd [2]?
A: 65 ± 5 µM

Q: And the n ([2]; ITC stoichiometry, 25 °C)?
A: 1.0 ± 0.1

Q: And the “-TΔS” value ([2]; ITC, 25 °C)?
A: 5.0 ± 0.5 kcal/mol

Q: And the ΔG ([2]; ITC, 25 °C)?
A: -5.83 ± 0.05 kcal/mol

Q: What about the ΔH ([2]; ITC, 25 °C) of the same compound?
A: -10.8 ± 0.5 kcal/mol

Q: And the ΔS ([2]; ITC, 25 °C)?
A: -17 ± 2 cal · mol-1 · K-1

Q: What about the Kd (mTFF1; pH 2.6, 25 °C) of the same compound?
A: 67 ± 1 µM

Q: What about the Kd (mTFF1; pH 7.4, 25 °C) of the same compound?
A: 37 ± 2 µM

Q: And the Kd (mTFF3; pH 2.6, 25 °C)?
A: 350 ± 60 µM

Q: And the Kd (mTFF3; pH 7.4, 25 °C)?
A: 58 ± 1 µM

Q: What about the “Kd at pH 2.6 relative to pH 7.4” value (mTFF3; mTFF3) of the same compound?
A: six-fold higher

Q: And the Kd (all TFFs)?
A: ~50 µM

Q: What about the “binding by ITC” value (dTFF1bio-N14A) of the same compound?
A: unable to detect any binding

Q: What about the “binding by ITC” value (dTFF1bio-N14A; listed as GlcNAc-a-1,4-Gal) of the same compound?
A: could not detect any residual binding

Q: And the “binding by ITC” value (the other TFF mutants)?
A: unable to detect any binding

Q: And the Kd [3]?
A: 72 µM
